Experimental data: paper PMC3898838, “Design, Synthesis, and Biological Evaluation of an Allosteric Inhibitor of HSET that Targets Cancer Cells with Supernumerary Centrosomes” (Chemistry & Biology, 2013)

Experiments:
[1] = target: T1, full-length, N-terminal, 6His-tagged human HSET (Homo sapiens, UniProt Q9BW19); assay: In vitro enzymatic ATPase assay (ADP-Glo), MT-stimulated activity; assay type: biochemical; settings: for reduction of HSET ATPase function: first-pass enzymatic assay, at 100 μM, n = 3
T1 construct: The protocol was optimized for use with full-length, N-terminal, 6His-tagged HSET and KSP; made in house; host or cells: Sf9 insect cells (baculovirus, pFastBac1)
T1 sequence (Q9BW19 1-673): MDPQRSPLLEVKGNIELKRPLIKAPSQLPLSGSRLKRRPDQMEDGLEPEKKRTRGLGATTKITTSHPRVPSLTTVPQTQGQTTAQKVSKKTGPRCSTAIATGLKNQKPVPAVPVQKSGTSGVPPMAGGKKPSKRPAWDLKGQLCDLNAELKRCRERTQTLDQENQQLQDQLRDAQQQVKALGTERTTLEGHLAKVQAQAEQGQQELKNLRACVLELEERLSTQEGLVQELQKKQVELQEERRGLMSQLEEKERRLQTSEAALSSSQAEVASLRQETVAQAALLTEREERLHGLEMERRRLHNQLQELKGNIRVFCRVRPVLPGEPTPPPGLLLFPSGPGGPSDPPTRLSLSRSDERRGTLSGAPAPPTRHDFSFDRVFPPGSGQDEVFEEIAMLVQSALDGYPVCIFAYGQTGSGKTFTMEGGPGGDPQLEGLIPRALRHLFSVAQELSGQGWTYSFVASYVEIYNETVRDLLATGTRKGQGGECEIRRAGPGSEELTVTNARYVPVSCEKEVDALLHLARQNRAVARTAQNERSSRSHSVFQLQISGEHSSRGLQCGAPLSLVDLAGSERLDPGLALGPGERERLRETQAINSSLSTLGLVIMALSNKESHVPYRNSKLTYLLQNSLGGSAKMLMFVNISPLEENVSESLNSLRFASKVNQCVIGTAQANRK
Excerpt: (§1) The similarity decreases to 56% in the loop 5 binding cleft alone (residues 422–432; Figure 1A). Given the high degree of similarity between the proteins, and the potential for selective binding in the loop 5 cleft, the chemogenomics principle that similar proteins bind similar ligands was applied to HSET and KSP, and an in silico model for HSET binding was developed based on nearly 500 existing inhibitors of KSP in the ChEMBL database (see Experimental Procedures for details; [Klabunde, 2007]). Using the model parameters, we selected 200 compounds (in silico) from 20 million possibilities and further triaged them into 50 ligands that scored highest in the bioactivity model. We acquired and tested these ligands for in vitro activity using an ADP-Glo enzymatic assay (see Experimental Procedures for details; Figure 1B).
(§2) The protocol was optimized for use with full-length, N-terminal, 6His-tagged HSET and KSP, and measured the MT-stimulated activity of the proteins. Inhibition of the […] of HSET/KSP was observed spectrophotometrically by coupling the hydrolysis of ATP to oxidation of NADH via pyruvate kinase/lactate dehydrogenase reactions. The assay was initiated by […] an assay mixture containing the following components (final concentration): 6 nM protein, 0.07 mg/ml MTs (University Biologicals), […], 2 mM ATP, 2.7 mM MgCI, 1 mM phospho(enol)-pyruvate, 0.2 mM NADH, 50 μg/ml lactate dehydrogenase, 100 μg/ml pyruvate kinase, and various concentrations of inhibitor all in 50 mM Na PIPES (pH 6.8) at 37°C. The ADP-Glo detection assay (Promega) was performed as described in the manufacturer’s instructions. All compound additions were performed using a multidrop BioMek Nxp (Beckman Coulter). Plates were read using a Pherastar microplate reader (BMG Labtech).

[2] = target: T2, full-length, N-terminal, 6His-tagged KSP (Homo sapiens, UniProt P52732); assay: as above; assay type: biochemical; settings: concentrations up to 250 μM, mean ± SD
T2 construct: IC50 values for CW069 and 3 against full-length, N-terminal, 6His-tagged HSET and KSP; made in house
T2 sequence (P52732 1-1056): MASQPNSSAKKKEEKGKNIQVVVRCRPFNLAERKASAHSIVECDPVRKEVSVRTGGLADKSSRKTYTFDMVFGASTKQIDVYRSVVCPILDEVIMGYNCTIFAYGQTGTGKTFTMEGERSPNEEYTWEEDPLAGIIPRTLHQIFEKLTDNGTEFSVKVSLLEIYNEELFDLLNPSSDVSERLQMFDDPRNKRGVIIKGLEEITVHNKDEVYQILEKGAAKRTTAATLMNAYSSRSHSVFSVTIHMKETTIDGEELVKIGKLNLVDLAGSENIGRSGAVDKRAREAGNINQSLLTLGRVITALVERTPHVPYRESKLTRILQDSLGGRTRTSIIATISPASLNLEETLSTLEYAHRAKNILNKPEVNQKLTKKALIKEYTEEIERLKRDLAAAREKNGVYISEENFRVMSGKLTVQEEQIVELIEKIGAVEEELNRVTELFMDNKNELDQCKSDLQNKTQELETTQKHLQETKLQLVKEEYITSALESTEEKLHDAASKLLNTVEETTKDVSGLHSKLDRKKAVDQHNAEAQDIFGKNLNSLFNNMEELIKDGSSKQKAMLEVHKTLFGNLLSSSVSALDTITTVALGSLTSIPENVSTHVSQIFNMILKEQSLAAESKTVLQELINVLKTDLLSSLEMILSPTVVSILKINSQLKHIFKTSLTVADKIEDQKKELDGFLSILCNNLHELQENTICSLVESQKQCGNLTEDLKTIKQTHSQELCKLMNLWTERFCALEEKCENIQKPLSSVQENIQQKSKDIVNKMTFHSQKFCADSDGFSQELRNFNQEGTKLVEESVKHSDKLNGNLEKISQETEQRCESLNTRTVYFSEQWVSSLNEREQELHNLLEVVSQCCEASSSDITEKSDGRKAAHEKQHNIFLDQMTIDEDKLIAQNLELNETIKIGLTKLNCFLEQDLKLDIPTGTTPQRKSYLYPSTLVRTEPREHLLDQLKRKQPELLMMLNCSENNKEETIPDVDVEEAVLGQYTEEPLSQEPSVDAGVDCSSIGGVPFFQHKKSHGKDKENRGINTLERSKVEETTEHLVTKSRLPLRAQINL
Excerpt: as §1, §2

HeLa cells [3] = assay: Time-lapse video microscopy, mitotic duration, arrest and exit; assay type: cell-based, human; settings: 200 μM CW069, 100 μM monastrol
Procedure: HSET is known to antagonize the activity of the related kinesin, KSP, during spindle formation ([Mountain et al., 1999]). Therefore, we used time-lapse video microscopy to investigate whether CW069-treated cells transit mitosis with normal kinetics, and whether the characteristic mitotic arrest induced by inhibition of KSP ([Mayer et al., 1999]) could be suppressed by cotreatment with CW069. To this end, HeLa cells were treated with either DMSO control (0.2%), 200 μM CW069, 100 μM monastrol, or CW069+monastrol for 60 min before being imaged every 5 min for a further 360 min. Mitotic duration (MD) was defined as the period of time between when the cells began to round up and the onset of anaphase. No statistical difference was recorded between control cells and cells treated with 200 μM CW069 (MD 55 ± 7 and 53 ± 6 min, respectively, Figures 6A, 6B, and S7). […] This effect was reversed to a large extent by cotreatment of CW069 with monastrol. […] This is consistent with observations previously reported for KSP-depleted cells ([Mountain et al., 1999]). […] Cells were synchronized in G2-M by incubation at 37°C and 5% CO2 for 24 hr with 9 μM of the CDK1 inhibitor RO-3306 (Merck). Cells were released by removal of the RO-3306 and four washings of 10 min each, at 37°C, with prewarmed culture media + 10% FBS. N1E-115 cells were transfected with siRNA (Supplemental Experimental Procedures) and imaged from 6 hr after transfection. Some RO-3306-synchronized cells were released with 200 μM CW069, 100 μM monastrol, or 0.2% DMSO, and imaging started immediately or 1 hr after treatment. Imaging was carried out for 24 hr, or for 4 hr in the case of the CW069/monastrol cotreatment. Imaging was conducted every 5 min in a humidified chamber with 37°C and 5% CO2, using a Nikon Eclipse TE2000-E microscope, and analyzed with NIS-Elements software (Nikon, Tokyo, Japan). The morphology of cells in mitosis and the mitotic fate (bipolar division, multipolar division, or cell death) were analyzed.

HeLa cells [4] = assay: Immunofluorescence after time-lapse imaging, monopolar/bipolar spindles; assay type: cell-based, human; settings: 200 μM CW069, 100 μM monastrol, 40 mitotic cells
Excerpt: Immediately after time-lapse imaging, cells were fixed and antibodies against α-tubulin, CDK5RAP2, and DAPI were employed to visualize MTs, centrosomes, and DNA, respectively. […] Control HeLa cells formed mainly bipolar spindles (92%), with two centrosomes positioned at the spindle poles on either side of the metaphase plate (Figure 6C; Table 1). Similar numbers of bipolar spindles were formed in CW069-treated cells (95%; Figure 6C; Table 1). Monastrol-treated cells almost exclusively formed monopolar spindles (97%) with one pole surrounded by DNA ([Luo et al., 2004]; Figure 6C; Table 1). Normal bipolar spindle formation was indeed restored for many cells (45%) when the HSET inhibitor CW069 was administered along with the KSP inhibitor monastrol (Figure 6C; Table 1).
Cells were plated at a seeding density of 1.2 × 10^4 cells per well in Ibidi eight-well chamber slides, incubated for 24 hr, and then treated with compound for 3 hr. Prewarmed 4% paraformaldehyde in PBS was then added to each well to fix the cells before washing with PBS. Permeabilization and blocking was performed by incubating the slides with 1% BSA, 0.3% Triton X-100, 5% goat serum in PBS (PBS/B/0.3%T+5%GS) for 1 hr while shaking them at room temperature (RT). The slides were incubated with primary antibody solutions (mouse monoclonal anti-α-Tubulin [catalog number T9026; Sigma-Aldrich] and rabbit anti-CDK5RAP2 [catalog number A300-554A; Bethyl Laboratories]) at 4°C for 16 hr. The slides were washed four times with PBS/B/0.3%T+5%GS and then incubated with secondary antibody solutions (anti-rabbit IgG Alexa Fluor 488 [catalog number A21206] and anti-mouse IgG Alexa Fluor 647 [catalog number A20990]; Invitrogen) and DAPI (catalog number D3571; Invitrogen) in deionized water (300 nM) in the dark at RT for 1 hr. After four washes with PBS/B/0.3%T+5%GS, the solution was replaced with PBS and the slides were stored at 4°C until imaging was performed. Images were gathered with the use of an ICys Research Imaging Cytometer (CompuCyte) or a tandem confocal microscope (Leica).

[5] = >200 cells that entered mitosis >60 min after treatment

O=C(c1ccc(N2CCCc3ccccc32)s1)n1ccnc1 [compound 1]
reduction of HSET ATPase function [1]: > 60%

O=C(O)c1cc(I)ccc1NC1C(=O)OC(c2ccccc2)C1c1ccccc1 (stereo not shown) [compound 2]
reduction of HSET ATPase function [1]: > 60%

O=C(O)c1cc(Cl)c(Cl)cc1C(=O)N(Cc1ccccc1)Cc1ccccc1 [compound 3]
IC50 ([1]; concentrations up to 250 μM, mean ± SD): 30 ± 4 µM
selectivity for HSET over KSP ([1]; from IC50 values, HSET vs KSP): does not possess selectivity for HSET
IC50 [2]: 29 ± 2 µM

CCOC(=O)C1=C(C)NC(=S)NC1c1cccc(O)c1 (stereo not shown) [monastrol, reference compound]
Mitotic Arrest (%) (HeLa cells [3]; [5]): 93%
Mitotic Exit (%) (HeLa cells [3]; [5]): 7%
Mitotic duration (MD) (HeLa cells [3]; rounding up to anaphase onset, cells transiting mitosis): 179 ± 68 min
Bipolar Spindle (%) (HeLa cells [4]): 3%
Monopolar Spindle (%) (HeLa cells [4]): 97%
